Values quoted from earlier work as cited in patent US7288142B2, “Black dyes composition for ink-jet inks” (Everlight USA, Inc., priority 2005, dated 2007).

Columns and labels:
[1] = as ink-jet black dye, prior art
[2] = as ink-jet black dye, prior art; remark: listed apart in the source

Row | light-fastness [1] | solubility [2] | Compound
1 | poor | – | Nc1cc2c(O)c(N=Nc3ccc(N=Nc4ccc(S(=O)(=O)[O-])cc4)c4ccc(S(=O)(=O)[O-])cc34)c(S(=O)(=O)[O-])cc2cc1S(=O)(=O)[O-].[Na+].[Na+].[Na+].[Na+] [C.I. Food Black 2]
2 | good | low | C.I. Direct Black 168
